{"source": "patent US6951873B1", "about": "“Methods for treating age-related behavioral disorders in companion animals” (priority 1999, dated 2005)", "origin": "cited, not measured here", "system": "aged-impaired dogs", "conditions": "spatial memory model sensitive to age-dependent cognitive impairment"}
{"smiles": "C#CCN(C)[C@H](C)Cc1ccccc1.Cl", "note": "[selegiline chloride]", "values": [{"measurement": "Performance of aged-impaired dogs on this test", "value": "improved"}]}
